Source: article PMC8868518, “Exploring Titanium(IV) Complexes as Potential Antimicrobial Compounds” (Antibiotics, 2022)
Where a name gives a salt, the structure may show the parent alone.

Assays:
[1] = tested on: C. neoformans (ATCC 208821); experiment: CO-ADD antifungal assay, growth inhibition (resazurin, OD600-570); format: cell-based, Cryptococcus neoformans; conditions: up to 32 μg/mL; for MIC / Dmax: Cryptococcus neoformans, ATCC208821; for MIC / MIC C. neoformans: predicted or measured MIC, ≥75% growth inhibition, 36 h; for Dmax: read-out: Dmax C. neoformans, maximum % inhibition
C. albicans (ATCC 90028) = experiment: CO-ADD antifungal assay, growth inhibition (OD630); format: cell-based, Candida albicans; conditions: for MIC / Dmax: Candida albicans, ATCC90028; for MIC / MIC C. albicans: predicted or measured MIC, ≥75% growth inhibition, 36 h; for MIC / Dmax / MIC C. albicans / Dmax C. albicans, maximum % inhibition: up to 32 μg/mL; for Dmax: read-out: Dmax C. albicans, maximum % inhibition
E. coli (ATCC 25922) = experiment: CO-ADD antibacterial assay, growth inhibition (OD600); format: cell-based, Escherichia coli; conditions: up to 32 μg/mL; for MIC / Dmax: Escherichia coli, ATCC25922; for MIC / MIC E. coli: predicted or measured MIC, ≥75% growth inhibition; for Dmax: read-out: Dmax E. coli, maximum % inhibition
[2] = tested on: K. pneumoniae (ATCC 700603); experiment: as above; format: cell-based, Klebsiella pneumoniae; conditions: up to 32 μg/mL; for MIC / Dmax: Klebsiella pneumoniae, ATCC700603; for MIC / MIC K. pneumoniae: predicted or measured MIC, ≥75% growth inhibition; for Dmax: read-out: Dmax K. pneumoniae, maximum % inhibition
[3] = tested on: P. aeruginosa (ATCC 27853); experiment: as above; format: cell-based, Pseudomonas aeruginosa; conditions: up to 32 μg/mL; for MIC / Dmax: Pseudomonas aeruginosa, ATCC27853; for MIC / MIC P. aeruginosa: predicted or measured MIC, ≥75% growth inhibition; for Dmax: read-out: Dmax P. aeruginosa, maximum % inhibition
[4] = tested on: A. baumannii (ATCC 19606); experiment: as above; format: cell-based, Acinetobacter baumannii; conditions: up to 32 μg/mL; for MIC / Dmax: Acinetobacter baumannii, ATCC19606; for MIC / MIC A. baumannii: predicted or measured MIC, ≥75% growth inhibition; for Dmax: read-out: Dmax A. baumannii, maximum % inhibition

Row | Compound | MIC [1] [mg/L] | Dmax [1] [%] | MIC (C. albicans (ATCC 90028)) [mg/L] | Dmax (C. albicans (ATCC 90028)) [%] | MIC (E. coli (ATCC 25922)) [mg/L] | Dmax (E. coli (ATCC 25922)) [%] | MIC [2] [mg/L] | Dmax [2] [%] | MIC [3] [mg/L] | MIC C. neoformans [1] [mg/L] | MIC C. albicans (C. albicans (ATCC 90028)) [mg/L] | Dmax C. albicans, maximum % inhibition (C. albicans (ATCC 90028)) [%] | MIC E. coli (E. coli (ATCC 25922)) [mg/L] | Dmax E. coli, maximum % inhibition (E. coli (ATCC 25922)) [%] | MIC K. pneumoniae [2] [mg/L] | Dmax K. pneumoniae, maximum % inhibition [2] [%] | MIC P. aeruginosa [3] [mg/L] | Dmax P. aeruginosa, maximum % inhibition [3] [%] | MIC A. baumannii [4] [mg/L] | Dmax A. baumannii, maximum % inhibition [4] [%] | further results
1 | O=C(O)c1ccccc1O [Compound 6, salicylic acid, reference compound] | > 32 | -10.7 | > 32 | 30.9 | > 32 | -0.01 | > 32 | 17.1 | > 32 |  |  |  |  |  |  |  |  |  |  |  | Dmax [3]: 9.76%; MIC [4]: > 32 mg/L; Dmax [4]: 17.9%
2 | Oc1cc2ccccc2cc1O [Compound 2, 2,3-dihydroxynaphthalene, reference compound] | > 32 | -9.97 | > 32 | 16.3 | > 32 | 6.86 | > 32 | 26.8 | > 32 |  |  |  |  |  |  |  |  |  |  |  | Dmax [3]: 14.6%; MIC [4]: > 32 mg/L; Dmax [4]: 31.3%
3 | O=C(O)c1ccc(-n2nc3nc2-c2ccccc2[O][Ti]2([O]c4ccccc4-3)[O]c3ccccc3-c3nc(n(-c4ccc(C(=O)O)cc4)n3)-c3ccccc3[O]2)cc1 [Compound 10, titanium(IV) bis(deferasirox)] |  |  |  |  |  |  |  |  |  | >32 | >32 | 5.74 | >32 | 20.44 | >32 | 34.61 | >32 | 7.57 | >32 | 16.28 | Dmax C. neoformans, maximum % inhibition [1]: −5.72%
4 | [Cu(Deferasirox)(H2O)]2 [Compound 15] |  |  |  |  |  |  |  |  |  | >32 | >32 | 34.0 | >32 | −9.5 | >32 | 7.7 | >32 | 19.2 | >32 | 7.8 | 
5 | O=C(O)CC(O)(CC(=O)O)C(=O)O [Compound 1, Trisodium citrate, reference compound] | > 32 | -8.24 | > 32 | 0.28 | > 32 | 6.14 | > 32 | 14.2 | > 32 |  |  |  |  |  |  |  |  |  |  |  | Dmax [3]: 10.3%; MIC [4]: > 32 mg/L; Dmax [4]: 18%
6 | [K+].[K+].c1ccc2cc3c(cc2c1)[O][Ti-2]12([O]3)([O]c3cc4ccccc4cc3[O]1)[O]c1cc3ccccc3cc1[O]2 [Compound 8, K2[Ti(Naphthalene-2,3-diolate)3]] |  |  |  |  |  |  |  |  |  | >32 | >32 | 57.57 | >32 | 2.67 | >32 | 22.94 | >32 | 13.43 | >32 | 24.76 | Dmax C. neoformans, maximum % inhibition [1]: −1.45%
7 | O=C([O-])C(=O)O.O=C([O-])C(=O)O.[K+].[K+].[O]=[Ti] [Compound 14, Potassium dioxalatoxotitanate(IV) dihydrate] |  |  |  |  |  |  |  |  |  | >32 | 32 | 77.3 | >32 | 11.0 | >32 | 17.2 | >32 | 7.5 | >32 | 8.2 | C. albicans MIC value in units of molarity (C. albicans (ATCC 90028); converted from 32 μg/mL (Table S1)): 90.4 µM; Dmax C. albicans, maximum % inhibition (C. albicans (ATCC 90028); listed as K2[TiO(Oxalate)2]): greater than 75%
